Experimental data as given in PubChem BioAssay (NCI).
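Exposure lasted 48 hours, with cells grown in 96-well plates and compounds tested at five concentrations. GI50: concentration for 50% inhibition of growth. TGI denotes the concentration required for complete inhibition of growth.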

How the values were obtained:
Test in all cases: inhibition of tumour cell growth, NCI panel, 48 h
COLO 205 colon = test system: COLO 205 colon
SK-MEL-2 melanoma = test system: SK-MEL-2 melanoma
NCI-H522 lung = test system: NCI-H522 lung
HCT-116 colon = test system: HCT-116 colon
MDA-MB-231 breast = test system: MDA-MB-231 breast
TK-10 renal = test system: TK-10 renal
MCF7 breast = test system: MCF7 breast
HT29 colon = test system: HT29 colon
CCRF-CEM leukemia = test system: CCRF-CEM leukemia
M14 melanoma = test system: M14 melanoma
SK-MEL-5 melanoma = test system: SK-MEL-5 melanoma
UO-31 renal = test system: UO-31 renal
SK-MEL-28 melanoma = test system: SK-MEL-28 melanoma
K-562 leukemia = test system: K-562 leukemia
SW-620 colon = test system: SW-620 colon
RXF 393 renal = test system: RXF 393 renal
NCI-H460 lung = test system: NCI-H460 lung
NCI-H23 lung = test system: NCI-H23 lung
EKVX NSCLC = test system: EKVX NSCLC
UACC-62 melanoma = test system: UACC-62 melanoma
U251 CNS = test system: U251 CNS
KM12 colon = test system: KM12 colon
OVCAR-5 ovarian = test system: OVCAR-5 ovarian
OVCAR-8 ovarian = test system: OVCAR-8 ovarian
HOP-62 NSCLC = test system: HOP-62 NSCLC
NCI-H226 lung = test system: NCI-H226 lung
HL-60(TB) leukemia = test system: HL-60(TB) leukemia
OVCAR-4 ovarian = test system: OVCAR-4 ovarian
HCC-2998 colon = test system: HCC-2998 colon
A498 renal = test system: A498 renal
PC-3 prostate = test system: PC-3 prostate
MDA-MB-435 = test system: MDA-MB-435
MOLT-4 leukemia = test system: MOLT-4 leukemia
SNB-75 CNS = test system: SNB-75 CNS
LOX IMVI melanoma = test system: LOX IMVI melanoma
MALME-3M melanoma = test system: MALME-3M melanoma
HOP-92 NSCLC = test system: HOP-92 NSCLC
HCT-15 colon = test system: HCT-15 colon
786-0 renal = test system: 786-0 renal
MDA-MB-468 breast = test system: MDA-MB-468 breast
IGROV1 ovarian = test system: IGROV1 ovarian
RPMI-8226 leukemia = test system: RPMI-8226 leukemia
SR leukemia = test system: SR leukemia
SF-268 CNS = test system: SF-268 CNS
ACHN renal = test system: ACHN renal
DU-145 prostate = test system: DU-145 prostate
A549 NSCLC = test system: A549 NSCLC
SF-295 CNS = test system: SF-295 CNS
SNB-19 CNS = test system: SNB-19 CNS
OVCAR-3 ovarian = test system: OVCAR-3 ovarian
BT-549 breast = test system: BT-549 breast
SN12C renal = test system: SN12C renal
SK-OV-3 ovarian = test system: SK-OV-3 ovarian
T-47D breast = test system: T-47D breast
CAKI-1 renal = test system: CAKI-1 renal
UACC-257 melanoma = test system: UACC-257 melanoma
NCI/ADR-RES ovarian = test system: NCI/ADR-RES ovarian
SF-539 CNS = test system: SF-539 CNS

CC(C)N=C([Se])NC(=O)c1ccccc1
GI50 (COLO 205 colon): 2.49 µM | TGI (COLO 205 colon): 6.46 µM | GI50 (SK-MEL-2 melanoma): 2.08 µM | TGI (SK-MEL-2 melanoma): 4.88 µM | GI50 (NCI-H522 lung): 1.64 µM | TGI (NCI-H522 lung): 3.17 µM | GI50 (HCT-116 colon): 1.88 µM | TGI (HCT-116 colon): 3.49 µM | GI50 (MDA-MB-231 breast): 2.67 µM | TGI (MDA-MB-231 breast): 6.49 µM | GI50 (TK-10 renal): 1.7 µM | TGI (TK-10 renal): 3.17 µM | GI50 (MCF7 breast): 1.7 µM | TGI (MCF7 breast): 3.66 µM | GI50 (HT29 colon): 2.34 µM | TGI (HT29 colon): 5.99 µM | GI50 (CCRF-CEM leukemia): 3.05 µM | TGI (CCRF-CEM leukemia): 10.8 µM | GI50 (M14 melanoma): 1.84 µM | TGI (M14 melanoma): 3.65 µM | GI50 (SK-MEL-5 melanoma): 1.88 µM | TGI (SK-MEL-5 melanoma): 3.67 µM | GI50 (UO-31 renal): 1.64 µM | TGI (UO-31 renal): 3 µM | GI50 (SK-MEL-28 melanoma): 1.94 µM | TGI (SK-MEL-28 melanoma): 3.62 µM | GI50 (K-562 leukemia): 2.76 µM | TGI (K-562 leukemia): 8.45 µM | GI50 (SW-620 colon): 2.06 µM | TGI (SW-620 colon): 4.63 µM | GI50 (RXF 393 renal): 1.88 µM | TGI (RXF 393 renal): 3.68 µM | GI50 (NCI-H460 lung): 2.93 µM | TGI (NCI-H460 lung): 11.6 µM | GI50 (NCI-H23 lung): 1.93 µM | TGI (NCI-H23 lung): 4.13 µM | GI50 (EKVX NSCLC): 1.77 µM | TGI (EKVX NSCLC): 3.32 µM | GI50 (UACC-62 melanoma): 1.96 µM | TGI (UACC-62 melanoma): 4.07 µM | GI50 (U251 CNS): 1.86 µM | TGI (U251 CNS): 3.51 µM | GI50 (KM12 colon): 3 µM | TGI (KM12 colon): 8.39 µM | GI50 (OVCAR-5 ovarian): 1.97 µM | TGI (OVCAR-5 ovarian): 3.72 µM | GI50 (OVCAR-8 ovarian): 1.88 µM | TGI (OVCAR-8 ovarian): 3.56 µM | GI50 (HOP-62 NSCLC): 2.03 µM | TGI (HOP-62 NSCLC): 5.19 µM | GI50 (NCI-H226 lung): 2.11 µM | TGI (NCI-H226 lung): 5.94 µM | GI50 (HL-60(TB) leukemia): 2.07 µM | TGI (HL-60(TB) leukemia): 5.37 µM | GI50 (OVCAR-4 ovarian): 1.75 µM | TGI (OVCAR-4 ovarian): 3.14 µM | GI50 (HCC-2998 colon): 1.92 µM | TGI (HCC-2998 colon): 3.67 µM | GI50 (A498 renal): 2.85 µM | TGI (A498 renal): 8.02 µM | GI50 (PC-3 prostate): 2.01 µM | TGI (PC-3 prostate): 4.37 µM | GI50 (MDA-MB-435): 2.69 µM | TGI (MDA-MB-435): 8.5 µM | GI50 (MOLT-4 leukemia): 2.33 µM | TGI (MOLT-4 leukemia): 6.07 µM | GI50 (SNB-75 CNS): 1.69 µM | TGI (SNB-75 CNS): 3.41 µM | GI50 (LOX IMVI melanoma): 1.85 µM | TGI (LOX IMVI melanoma): 3.94 µM | GI50 (MALME-3M melanoma): 1.63 µM | TGI (MALME-3M melanoma): 3.09 µM | GI50 (HOP-92 NSCLC): 1.95 µM | TGI (HOP-92 NSCLC): 4.36 µM | GI50 (HCT-15 colon): 1.85 µM | TGI (HCT-15 colon): 3.63 µM | GI50 (786-0 renal): 1.8 µM | TGI (786-0 renal): 3.25 µM | GI50 (MDA-MB-468 breast): 1.72 µM | TGI (MDA-MB-468 breast): 3.61 µM | GI50 (IGROV1 ovarian): 1.76 µM | TGI (IGROV1 ovarian): 3.49 µM | GI50 (RPMI-8226 leukemia): 2.64 µM | TGI (RPMI-8226 leukemia): 7.83 µM | GI50 (SR leukemia): 2.06 µM | TGI (SR leukemia): 5.23 µM | GI50 (SF-268 CNS): 2.9 µM | TGI (SF-268 CNS): 8.27 µM | GI50 (ACHN renal): 1.92 µM | TGI (ACHN renal): 3.41 µM | GI50 (DU-145 prostate): 1.95 µM | TGI (DU-145 prostate): 3.6 µM | GI50 (A549 NSCLC): 3.11 µM | TGI (A549 NSCLC): 34.8 µM | GI50 (SF-295 CNS): 1.86 µM | TGI (SF-295 CNS): 5.21 µM | GI50 (SNB-19 CNS): 2.91 µM | TGI (SNB-19 CNS): 10.8 µM | GI50 (OVCAR-3 ovarian): 1.97 µM | TGI (OVCAR-3 ovarian): 3.57 µM | GI50 (BT-549 breast): 1.61 µM | TGI (BT-549 breast): 3.55 µM | GI50 (SN12C renal): 1.82 µM | TGI (SN12C renal): 3.29 µM | GI50 (SK-OV-3 ovarian): 0.426 µM | TGI (SK-OV-3 ovarian): 1.3 µM | GI50 (T-47D breast): 1.98 µM | TGI (T-47D breast): 4.52 µM | GI50 (CAKI-1 renal): 1.67 µM | TGI (CAKI-1 renal): 3.04 µM | GI50 (UACC-257 melanoma): 1.92 µM | TGI (UACC-257 melanoma): 4.06 µM | GI50 (NCI/ADR-RES ovarian): 2.12 µM | TGI (NCI/ADR-RES ovarian): 4.89 µM | GI50 (SF-539 CNS): 1.8 µM | TGI (SF-539 CNS): 3.21 µM
